Experimental data from patent US11142519B2, “Pesticidally active pyrazole derivatives” (SYNGENTA PARTICIPATIONS AG, priority 2017, dated 2021).

What was measured:
Assay type in all cases: in vivo
Tetranychus urticae = Tetranychus urticae (Two-spotted spider mite) bean leaf disc spray test; details: foliar, 192 h, application rate of 200 ppm, 8 days after infestation, read-out: mortality on mixed population (mobile stages)
Procedure: Tetranychus urticae (Two-spotted spider mite):
Bean leaf discs on agar in 24-well microtiter plates were sprayed with aqueous test solutions prepared from 10,000 ppm DMSO stock solutions. After drying the leaf discs were infested with a mite population of mixed ages. The samples were assessed for mortality on mixed population (mobile stages) 8 days after infestation.

Plutella xylostella = Plutella xylostella (Diamond back moth) artificial diet test; details: 120 h, application rate of 200 ppm, L2 larvae, 5 days after infestation, read-out: effect in at least one of the two categories (mortality or growth inhibition)
Procedure: Plutella xylostella (Diamond back moth):
24-well microtiter plates with artificial diet were treated with aqueous test solutions prepared from 10,000 ppm DMSO stock solutions by pipetting. After drying, the plates were infested with L2 larvae (10 to 15 per well). The samples were assessed for mortality and growth inhibition in comparison to untreated samples 5 days after infestation. The following compounds gave an effect of at least 80% in at least one of the two categories (mortality or growth inhibition) at an application rate of 200 ppm: 1, 2, 3, 4, 7 and 10.

Thrips tabaci = Thrips tabaci (Onion thrips) sunflower leaf disc spray test; details: foliar, 144 h, application rate of 200 ppm, population of mixed ages, 6 days after infestation
Procedure: Thrips tabaci (Onion thrips):
Sunflower leaf discs were placed on agar in 24-well microtiter plates and sprayed with aqueous test solutions prepared from 10,000 ppm DMSO stock solutions. After drying the leaf discs were infested with a thrips population of mixed ages. The samples were assessed for mortality 6 days after infestation.

Spodoptera littoralis = Spodoptera littoralis (Egyptian cotton leaf worm) cotton leaf disc spray test; details: foliar, 72 h, application rate of 200 ppm, L1 larvae, 3 days after infestation, read-out: control (at least one of mortality, anti-feedant effect, growth inhibition)
Procedure: Spodoptera littoralis (Egyptian cotton leaf worm)
Cotton leaf discs were placed on agar in 24-well microtiter plates and sprayed with aqueous test solutions prepared from 10,000 ppm DMSO stock solutions. After drying the leaf discs were infested with five L1 larvae. The samples were assessed for mortality, anti-feedant effect, and growth inhibition in comparison to untreated samples 3 days after infestation. Control of Spodoptera littoralis by a test sample is when at least one of mortality, anti-feedant effect, and growth inhibition is higher than the untreated sample.

Diabrotica balteata = Diabrotica balteata (Corn root worm) maize sprout spray test; details: 96 h, application rate of 200 ppm, L2 larvae, 4 days after infestation, read-out: effect in at least one of the two categories (mortality or growth inhibition)
Procedure: Diabrotica balteata, (Corn root worm)
Maize sprouts, placed on an agar layer in 24-well microtiter plates were treated with aqueous test solutions prepared from 10,000 ppm DMSO stock solutions by spraying. After drying, the plates were infested with L2 larvae (6 to 10 per well). The samples were assessed for mortality and growth inhibition in comparison to untreated samples 4 days after infestation. The following compounds gave an effect of at least 80% in at least one of the two categories (mortality or growth inhibition) at an application rate of 200 ppm: 1, 2, 3 and 7.

Euschistus heros = Euschistus heros (Neotropical Brown Stink Bug) soybean leaf spray test; details: 120 h, application rate of 200 ppm, N2 nymphs, 5 days after infestation, read-out: effect in at least one of the two categories (mortality or growth inhibition)
Procedure: Euschistus heros (Neotropical Brown Stink Bug)
Soybean leaves on agar in 24-well microtiter plates were sprayed with aqueous test solutions prepared from 10,000 ppm DMSO stock solutions. After drying the leaves were infested with N2 nymphs. The samples were assessed for mortality and growth inhibition in comparison to untreated samples 5 days after infestation. The following compounds gave an effect of at least 80% in at least one of the two categories (mortality or growth inhibition) at an application rate of 200 ppm: 1, 3 and 7.

Cn1nc(C(F)(F)C(F)(F)F)c(OC(F)F)c1-n1cc(-c2cc(C(=O)NC3(C#N)CC3)c(C#N)s2)nn1 [Example 4, 2-cyano-N-(1-cyanocyclopropyl)-5-[1-[4-(difluoromethoxy)-2-methyl-5-(1,1,2,2,2-pentafluoroethyl)pyrazol-3-yl]triazol-4-yl]thiophene-3-carboxamide]
≥ 80%: mortality at 200 ppm (Tetranychus urticae) | percent effect (mortality or growth inhibition) at 200 ppm (Plutella xylostella) | mortality at 200 ppm (Thrips tabaci) | percent control (mortality, anti-feedant effect or growth inhibition) at 200 ppm (Spodoptera littoralis)

Cn1nc(C(F)(F)C(F)(F)F)c(OC(F)F)c1-n1cc(-c2cc(C(=O)NC3CC3)c(Cl)s2)nn1 [Example 7, 2-chloro-N-cyclopropyl-5-[1-[4-(difluoromethoxy)-2-methyl-5-(1,1,2,2,2-pentafluoroethyl)pyrazol-3-yl]triazol-4-yl]thiophene-3-carboxamide]
≥ 80%: percent effect (mortality or growth inhibition) at 200 ppm (Diabrotica balteata) | percent effect (mortality or growth inhibition) at 200 ppm (Plutella xylostella) | mortality at 200 ppm (Thrips tabaci) | percent effect (mortality or growth inhibition) at 200 ppm (Euschistus heros) | percent control (mortality, anti-feedant effect or growth inhibition) at 200 ppm (Spodoptera littoralis)

CN(C(=O)c1cc(-c2cn(-c3c(OC(F)F)c(C(F)(F)C(F)(F)F)nn3C)nn2)sc1C#N)C1CC1 [Example 2, 2-cyano-N-cyclopropyl-5-[1-[4-(difluoromethoxy)-2-methyl-5-(1,1,2,2,2-pentafluoroethyl)pyrazol-3-yl]triazol-4-yl]-N-methyl-thiophene-3-carboxamide]
≥ 80%: mortality at 200 ppm (Tetranychus urticae) | percent effect (mortality or growth inhibition) at 200 ppm (Diabrotica balteata) | percent effect (mortality or growth inhibition) at 200 ppm (Plutella xylostella) | mortality at 200 ppm (Thrips tabaci) | percent control (mortality, anti-feedant effect or growth inhibition) at 200 ppm (Spodoptera littoralis)

CCN(C(=O)c1cc(-c2cn(-c3c(OC(F)F)c(C(F)(F)C(F)(F)F)nn3C)nn2)sc1C#N)C1CC1 [Example 3, 2-cyano-N-cyclopropyl-5-[1-[4-(difluoromethoxy)-2-methyl-5-(1,1,2,2,2-pentafluoroethyl)pyrazol-3-yl]triazol-4-yl]-N-ethyl-thiophene-3-carboxamide]
≥ 80%: mortality at 200 ppm (Tetranychus urticae) | percent effect (mortality or growth inhibition) at 200 ppm (Diabrotica balteata) | percent effect (mortality or growth inhibition) at 200 ppm (Plutella xylostella) | mortality at 200 ppm (Thrips tabaci) | percent effect (mortality or growth inhibition) at 200 ppm (Euschistus heros) | percent control (mortality, anti-feedant effect or growth inhibition) at 200 ppm (Spodoptera littoralis)

Cn1nc(C(F)(F)C(F)(F)F)c(OC(F)F)c1-n1cc(-c2cc(C(=O)NC3(C#N)CC3)c(Cl)s2)nn1 [Example 10, 2-chloro-N-(1-cyanocyclopropyl)-5-[1-[4-(difluoromethoxy)-2-methyl-5-(1,1,2,2,2-pentafluoroethyl)pyrazol-3-yl]triazol-4-yl]thiophene-3-carboxamide]
≥ 80%: percent effect (mortality or growth inhibition) at 200 ppm (Plutella xylostella) | mortality at 200 ppm (Thrips tabaci) | percent control (mortality, anti-feedant effect or growth inhibition) at 200 ppm (Spodoptera littoralis)

Cn1nc(C(F)(F)C(F)(F)F)c(OC(F)F)c1-n1cc(-c2cc(C(=O)NC3CC3)c(C#N)s2)nn1 [Example 1, 2-cyano-N-cyclopropyl-5-[1-[4-(difluoromethoxy)-2-methyl-5-(1,1,2,2,2-pentafluoroethyl)pyrazol-3-yl]triazol-4-yl]thiophene-3-carboxamide]
≥ 80%: mortality at 200 ppm (Tetranychus urticae) | percent effect (mortality or growth inhibition) at 200 ppm (Diabrotica balteata) | percent effect (mortality or growth inhibition) at 200 ppm (Plutella xylostella) | mortality at 200 ppm (Thrips tabaci) | percent effect (mortality or growth inhibition) at 200 ppm (Euschistus heros) | percent control (mortality, anti-feedant effect or growth inhibition) at 200 ppm (Spodoptera littoralis)
